Results from ChEMBL document CHEMBL1667753, “Synthesis of 2-(aminomethyl)aziridines and their microwave-assisted ring opening to 1,2,3-triaminopropanes as novel antimalarial pharmacophores” (Eur J Med Chem, 2011).

Key:
Plasmodium falciparum [1] = assay: Antiplasmodial activity against chloroquine-sensitive Plasmodium falciparum D10 by parasite LDH assay; format: functional, organism-based
Plasmodium falciparum [2] = assay: Resistance index, ratio of IC50 for chloroquine-resistant Plasmodium falciparum Dd2 to IC50 for chloroquine-sensitive Plasmodium falciparum D10; format: functional
Plasmodium falciparum [3] = assay: Antiplasmodial activity against chloroquine-resistant Plasmodium falciparum Dd2 by parasite LDH assay; format: functional, organism-based
CHO = assay: Cytotoxicity against CHO cells by MTT assay; format: cell-based; settings: Cricetulus griseus
[4] = Selectivity index, ratio of IC50 for CHO cells to IC50 for chloroquine-sensitive Plasmodium falciparum D10; format: toxicity, cell-based; settings: hamster, read-out: Ratio IC50

Row | Compound | IC50 (Plasmodium falciparum [1]) [µM] | Ratio IC50 (Plasmodium falciparum [2]) | IC50 (Plasmodium falciparum [3]) [µM] | IC50 (CHO) [µM] | selectivity ratio [4]
1 | CCN(CC)CC(Cn1cc(C)c(=O)[nH]c1=O)NCc1ccc(OC)cc1 (racemic) | 128 | – | – | – | –
2 | CCN(CC)CC(Cn1cnc2c(N)ncnc21)NCc1ccc(Cl)cc1 (racemic) | 78.2 | – | – | – | –
3 | CCN(CC)CC(CN(CC)CC)NCc1ccccc1 | 23.7 | 1.3 | 30.2 | > 300 | –
4 | CCN(CC)CC(CN(CC)CC)NCc1ccc(OC)cc1 | 6.66 | 2 | 13.5 | 170 | 24.2
5 | CCN(CC)CC(Cn1cncn1)NCc1ccccc1 (racemic) | 42.9 | 2.3 | 98.8 | > 300 | –
6 | CCN(CC)CC(Cn1cncn1)NCc1ccc(OC)cc1 (racemic) | 1.98 | 41.1 | 80.9 | 159 | –
7 | COc1ccc(CN2CC2Cn2cncn2)cc1 (racemic) | 4.18 | 5.6 | 23.2 | > 400 | –
8 | Cc1cn(CC2CN2Cc2ccc(Cl)cc2)c(=O)[nH]c1=O (racemic) | 138 | – | – | – | –
9 | COc1ccc(CN2CC2Cn2cnc3c(N)ncnc32)cc1 (racemic) | 267 | – | – | – | –
10 | CCN(CC)CC(CN(CC)CC)NCc1ccc(Cl)cc1 | 8.41 | 2.4 | 19.8 | 76.4 | 9.1
11 | c1ccc(CN2CC2Cn2cncn2)cc1 (racemic) | 80.7 | – | – | – | –
12 | CCN(CC)CC1CN1Cc1ccccc1 (racemic) | 15.2 | 3.2 | 48.3 | 402 | 26.3
13 | CCN(CC)CC(Cn1cnc2c(N)ncnc21)NCc1ccc(OC)cc1 (racemic) | 81.9 | – | – | – | –
14 | CCN(CC)CC(Cn1cc(C)c(=O)[nH]c1=O)NCc1ccc(Cl)cc1 (racemic) | 71.7 | – | – | – | –
15 | COc1ccc(CN2CC2Cn2cc(C)c(=O)[nH]c2=O)cc1 (racemic) | 172 | – | – | – | –
16 | CCN(CC)CC(Cn1cncn1)NCc1ccc(Cl)cc1 (racemic) | 6.52 | 2 | 13.1 | > 300 | –
17 | CCN(CC)CC(Cn1cnc2c(N)ncnc21)NCc1ccccc1 (racemic) | 214 | – | – | – | –
18 | CC[C@H]1CN2CCc3cc(OC)c(OC)cc3[C@@H]2C[C@@H]1C[C@H]1NCCc2cc(OC)c(OC)cc21 [EMETINE] | – | – | – | 0.127 | –
19 | Nc1ncnc2c1ncn2CC1CN1Cc1ccc(Cl)cc1 (racemic) | > 300 | – | – | – | –
20 | CCN(CC)CC1CN1Cc1ccc(Cl)cc1 (racemic) | 6.49 | 3.7 | 23.7 | 247 | 38.1
21 | Clc1ccc(CN2CC2Cn2cncn2)cc1 (racemic) | 126 | – | – | – | –
22 | CCN(CC)CC1CN1Cc1ccc(OC)cc1 (racemic) | 8.54 | 2.1 | 18 | 193 | 22.6
23 | Nc1ncnc2c1ncn2CC1CN1Cc1ccccc1 (racemic) | > 350 | – | – | – | –
